Source: ChEMBL document CHEMBL1128206, “Substituted 2-azaspiro[5.3]nonan-1-ones as potent cholesterol absorption inhibitors: defining a binding conformation for SCH 48461” (1995)

How the values were obtained:
[1] = Compound was evaluated in vivo for the reduction of liver cholesterol ester level at the rate 5 mpk; format: functional
[2] = Compound was evaluated in vivo for the reduction of liver cholesterol ester level at the rate 50 mpk; format: functional
[3] = Compound was evaluated in vivo for the reduction of liver cholesterol ester level at the rate 10 mpk; format: functional
Cricetinae gen. sp. [4] = assay: Effective concentration was evaluated when liver cholesterol ester level reduction was 87%; format: functional, Cricetulus griseus
Cricetinae gen. sp. [5] = assay: Effective concentration was evaluated when liver cholesterol ester level reduction was 17%; format: functional, Cricetulus griseus

`COc1ccc([C@@H]2[C@@H](CCCc3ccccc3)C(=O)N2c2ccc(OC)cc2)cc1` [SCH-48461] gave a L/CE [1] of 66% and a L/CE [2] of 0%.
`COc1ccc([C@H]2[C@@H](CCCc3ccccc3)C(=O)N2c2ccc(OC)cc2)cc1` gave a L/CE [3] of 0%.
`COc1ccc([C@@H]2[C@H](CCCc3ccccc3)C(=O)N2c2ccc(OC)cc2)cc1` gave a L/CE [3] of 69% and a L/CE [2] of 0%.
With `COc1ccc([C@@H]2N(c3ccc(OC)cc3)C(=O)C23CCC(c2ccccc2)CC3)cc1` (stereo partly drawn) the ED50 (Cricetinae gen. sp. [4]) was over 50 mg/kg and the ED50 (Cricetinae gen. sp. [5]) was 3 mg/kg.
For `COc1ccc([C@H]2[C@H](CCCc3ccccc3)C(=O)N2c2ccc(OC)cc2)cc1`, the L/CE [1] was 0%.
